Test results taken from US9682955B2, “Quinazoline derivatives useful as CB-1 inverse agonists” (Janssen Pharmaceutica NV, priority 2014, dated 2017).

How the values were obtained:
[1] = target: Human CB2R (Cannabanoid receptor 2) (Homo sapiens (Human), UniProt P34972); assay: CB-2 in vitro cAMP assay (HTRF); assay type: cell-based; settings: mean where tested more than once
Source text: (§1) CB1 and CB2 receptors are Gi-coupled GPCR. Activation of CB1 and CB2 receptors results in a decrease in cAMP production. An inverse agonist of the CB1 or CB2 receptor results in the opposite effect, an increase of cAMP production. The principle of this assay is based on HTRF® technology (Homogeneous Time-Resolved Fluorescence). The method is a competitive immunoassay between native cAMP produced by cells and the cAMP labeled with the fluorophore d2. The tracer binding is quantified by a Mab anti-cAMP labeled with Eu3+TBP-NHS Cryptate (supplied as part of the assay kit). The specific signal (i.e. energy transfer) is inversely proportional to the concentration of cAMP in the standard or sample.
(§2) Human CB1R (Cannabanoid receptor 1) was stably transfected in HEK-293 cells (DiscoveRx, cat: 93-0200C1). Human CB2R (Cannabanoid receptor 2) was stably transfected in HEK-293 cells (DiscoveRx, cat: 93-0201C1). Cell cultures were maintained in media: DMEM (Invitrogen Cat#12430-054) supplemented with 10% HI FBS (Invitrogen Cat#16140-071), 1% L-glutamine (Invitrogen Cat#25030-081), 0.2 mg/ml Hygromycin B (Invitrogen Cat#10687-010), 600 μg/mL G418 (Invitrogen Cat#10131-035), and 1× Penn/Strep (Invitrogen 15140-122). After cell expansion, aliquots were cryo-stored in media containing 5% DMSO (Pierce Cat#20684).
(§3) One day prior to experiments media was warmed to 37° C. and the cryo-stored cells were thawed in a 37° C. water bath. The cells were then added to media (10× volume) and the mixture was centrifugated at 1000 RPM for 5 min. The supernate was removed and the cells were re-suspended in media. A sample of the cell suspension was evaluated on a Cedex XS automated cell counter (Innovatis Systems) to determine viable cells/ml. Additional media was added to the cells to achieve a final cell density of 4E5 cells/mL. The cells were then plated into 384 well PDL white solid bottom plates (Greiner, Cat#781945) at 20 μL per well using a Multidrop (Thermo Scientific). Cells were removed from Row P (location of cAMP standards). Two columns of cells were plated into a clear bottom 384 well PDL coated plate (Greiner, Cat#781944) to view confluence the day of the assay. The cell plates were lidded and stored for 15 minutes in a hood, then transferred to an incubator (37° C., 5% CO2, 95% humidity) overnight.
(§4) DMSO was added to all wells of 384 well V bottom polystyrene plate (Greiner, Cat#781280) except to columns 1 and 13, rows O and P and wells M13-M23 and N13-N23. Test compounds (60 μL, 10 mM) were added to Column 1 and 13 (A1 through N1 and A13 through L13). Test compounds were serially diluted 1/3 by transferring and mixing 20 μl sample with 40 μL DMSO.
(§5) DMSO (40 μL) was added to wells of 384 well V bottom polystyrene plate: O2 through O11, M14 through M23, N14 through N23, and O14 through O23. AM630 (also known as [6-iodo-2-methyl-1-[2-(4-morpholinyl)ethyl]-1H-indol-3-yl](4-methoxyphenyl)-methanone, Cayman Chemical, Cat#10006974) (60 μL, 10 mM) was added to O1; and 1-(2,4-dichlorophenyl)-7-[(4-fluorophenyl)methylene]-4,5,6,7-tetrahydro-N-1-piperidinyl-1H-indazole-3-carboxamide (60 μL, 10 mM) was added to N13. The control was serially diluted 1/3 by transferring and mixing 20 μl sample with 40 μL DMSO. This process resulted 11 doses per control, 10 mM to […].
(§6) Cells plated the day prior to the assay in clear bottom plates were viewed on an inverse microscope to ensure confluency in the range of 60-75%. […]

[2] = target: Human CB1R (Cannabanoid receptor 1) (Homo sapiens (Human), UniProt P21554); assay: CB-1 in vitro cAMP assay (HTRF); assay type: cell-based; settings: mean where tested more than once
Human CB1R (Cannabanoid receptor 1), sequence (P21554 whole entry): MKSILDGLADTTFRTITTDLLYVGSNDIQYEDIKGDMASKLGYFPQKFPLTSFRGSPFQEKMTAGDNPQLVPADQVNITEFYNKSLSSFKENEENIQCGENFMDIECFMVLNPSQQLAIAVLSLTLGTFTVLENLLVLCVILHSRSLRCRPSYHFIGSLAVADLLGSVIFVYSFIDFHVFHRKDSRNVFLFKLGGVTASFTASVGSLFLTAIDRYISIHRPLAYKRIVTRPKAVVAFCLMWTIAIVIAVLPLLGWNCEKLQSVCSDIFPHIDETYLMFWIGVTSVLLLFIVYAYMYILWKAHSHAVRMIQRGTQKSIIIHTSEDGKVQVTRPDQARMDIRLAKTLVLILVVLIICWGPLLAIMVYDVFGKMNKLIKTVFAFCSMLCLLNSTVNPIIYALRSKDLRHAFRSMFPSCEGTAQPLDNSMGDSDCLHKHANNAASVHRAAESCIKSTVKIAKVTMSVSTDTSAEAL
Source text: as §1, §2, §3, §4, §5, §6

Human CB2R (Cannabanoid receptor 2), sequence (P34972 whole entry): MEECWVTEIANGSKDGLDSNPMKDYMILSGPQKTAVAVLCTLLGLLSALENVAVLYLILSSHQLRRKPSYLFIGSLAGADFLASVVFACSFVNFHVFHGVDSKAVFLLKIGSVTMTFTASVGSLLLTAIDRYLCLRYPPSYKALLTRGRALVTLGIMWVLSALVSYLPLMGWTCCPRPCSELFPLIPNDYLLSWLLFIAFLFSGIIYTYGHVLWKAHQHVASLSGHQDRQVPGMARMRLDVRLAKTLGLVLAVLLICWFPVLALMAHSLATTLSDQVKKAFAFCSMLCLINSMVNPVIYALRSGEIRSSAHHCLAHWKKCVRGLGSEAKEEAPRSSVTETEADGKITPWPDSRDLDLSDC

Row | Compound | EC50 [1] [nM] | EC50 [2] [nM]
1 | C[C@H](Nc1ncnc2ccc(C(c3ccc(Cl)cc3)c3ccc(Cl)cc3)cc12)c1cccc(C(F)(F)F)c1 (single isomer, unassigned) [Compound #112] | 4700 | 10
2 | C[C@@H](Nc1ncnc2ccc(C(c3ccc(Cl)cc3)c3ccc(Cl)cc3)cc12)c1cccc(C(F)(F)F)c1 (single isomer, unassigned) [compound 115] | 8200 | 34
3 | O=S(=O)(N1CCC(Nc2nc(Cl)nc3ccc(C(c4ccc(Cl)cc4)c4ccc(Cl)cc4)cc23)CC1)C(F)(F)F [Compound 200] | 6500 | 9
4 | O=C(O)c1cccc(CCNc2ncnc3ccc(C(c4ccc(Cl)cc4)c4ccc(Cl)cc4)cc23)c1 [Compound #2, 3-(2-((6-(bis(4-chlorophenyl)methyl)quinazolin-4-yl)amino)ethyl)benzoic acid] | 1060 | 325
5 | O=C(O)COc1ccc(S(=O)(=O)N2CCC(Nc3ncnc4ccc(C(c5ccc(Cl)cc5)c5ccc(Cl)cc5)cc34)CC2)cc1 [Compound #3, 2-(4-((4-((6-(bis(4-chlorophenyl)methyl)quinazolin-4-yl)amino)piperidin-1-yl)sulfonyl)phenoxy)acetic acid] | 3430 | 98
6 | CCOC(=O)COc1ccc(S(=O)(=O)N2CCC(Nc3ncnc4ccc(C(c5ccc(Cl)cc5)c5ccc(Cl)cc5)cc34)CC2)cc1 [Compound #4, Ethyl 2-(4-((4-((6-(bis(4-chlorophenyl)methyl)quinazolin-4-yl)amino)piperidin-1-yl)sulfonyl)phenoxy)acetate] | 170 | 9
7 | O=S1(=O)CCN(CCNc2ncnc3ccc(C(c4ccc(Cl)cc4)c4ccc(Cl)cc4)cc23)CC1 [Compound #6, 4-(2-((6-(bis(4-chlorophenyl)methyl)quinazolin-4-yl)amino)ethyl)thiomorpholine 1,1-dioxide] | 455 | 35
8 | O=S(=O)(c1ccc(O)cc1)N1CCC(Nc2ncnc3ccc(C(c4ccc(Cl)cc4)c4ccc(Cl)cc4)cc23)CC1 [Compound #8] | 248 | 8
9 | O=S(=O)(NC1CCN(c2ncnc3ccc(C(c4ccc(Cl)cc4)c4ccc(Cl)cc4)cc23)C1)C(F)(F)F (stereo not shown) [Compound #9, N-(1-(6-(bis(4-chlorophenyl)methyl)quinazolin-4-yl)pyrrolidin-3-yl)trifluoromethanesulfonamide] | 150 | 191
10 | O=C(O)c1ccc(CCN2CCC(Nc3ncnc4ccc(C(c5ccc(Cl)cc5)c5ccc(Cl)cc5)cc34)CC2)cc1 [Compound #10, 4-(2-(4-((6-(bis(4-chlorophenyl)methyl)quinazolin-4-yl)amino)piperidin-1-yl)ethyl)benzoic acid] | 998 | 894
11 | Clc1ccc(C(c2ccc(Cl)cc2)c2ccc3ncnc(NC4CCN(CCc5ccccc5)CC4)c3c2)cc1 [Compound #11, 6-(bis(4-chlorophenyl)methyl)-N-(1-phenethylpiperidin-4-yl)quinazolin-4-amine] | > 10000 | 124
12 | O=C(O)c1cccc(CCN2CCC(Nc3ncnc4ccc(C(c5ccc(Cl)cc5)c5ccc(Cl)cc5)cc34)CC2)c1 [Compound #13, 3-(2-(4-(6-(bis(4-chlorophenyl)methyl)quinazolin-4-ylamino)piperidin-1-yl)ethyl)benzoic acid] | 3050 | 1240
13 | O=C(O)c1ccc(CN2CCC(Nc3ncnc4ccc(C(c5ccc(Cl)cc5)c5ccc(Cl)cc5)cc34)C2)cc1 (stereo not shown) [Compound #14, 4-((3-((6-(bis(4-chlorophenyl)methyl)quinazolin-4-yl)amino)pyrrolidin-1-yl)methyl)benzoic acid] | 8700 | 1120
14 | O=C(O)c1ccc(C(c2ccc(Cl)cc2)c2ccc3ncnc(NC4CCN(S(=O)(=O)C(F)(F)F)CC4)c3c2)cc1 (stereo not shown) [Compound #16, 4-((4-chlorophenyl)(4-((1-((trifluoromethyl)sulfonyl)piperidin-4-yl)amino)quinazolin-6-yl)methyl)benzoic acid] | > 10000 | 343
15 | O=C(O)c1csc(CN2CCC(Nc3ncnc4ccc(C(c5ccc(Cl)cc5)c5ccc(Cl)cc5)cc34)CC2)c1 [Compound #18, 5-((4-((6-(bis(4-chlorophenyl)methyl)quinazolin-4-yl)amino)piperidin-1-yl)methyl)thiophene-3-carboxylic acid] | 6260 | 165
16 | N#Cc1ccc(C(c2ccc(Cl)cc2)c2ccc3ncnc(NC4CCN(S(=O)(=O)C(F)(F)F)CC4)c3c2)cc1 (stereo not shown) [Compound #19, 4-((4-chlorophenyl)(4-((1-((trifluoromethyl)sulfonyl)piperidin-4-yl)amino)quinazolin-6-yl)methyl)benzonitrile] | 157 | 6
17 | O=S(=O)(N1CCC(Nc2ncnc3ccc(C(c4ccc(Cl)cc4)c4ccc(Br)cc4)cc23)CC1)C(F)(F)F (stereo not shown) [Compound #20, 6-((4-bromophenyl)(4-chlorophenyl)methyl)-N-(1-((trifluoromethyl)sulfonyl)piperidin-4-yl)quinazolin-4-amine] | 218 | 17
18 | COc1cc(S(=O)(=O)N2CCC(Nc3ncnc4ccc(C(c5ccc(Cl)cc5)c5ccc(Cl)cc5)cc34)CC2)ccc1C(=O)O [Compound #22, 4-((4-((6-(bis(4-chlorophenyl)methyl)quinazolin-4-yl)amino)piperidin-1-yl)sulfonyl)-2-methoxybenzoic acid] | 280 | 23
19 | O=C(O)c1ccc(S(=O)(=O)N2CCC(Nc3ncnc4ccc(C(c5ccc(Cl)cc5)c5ccc(Cl)cc5)cc34)CC2)cc1Cl [Compound #23, 4-((4-((6-(bis(4-chlorophenyl)methyl)quinazolin-4-yl)amino)piperidin-1-yl)sulfonyl)-2-chlorobenzoic acid] | 434 | 19
20 | O=C(O)c1ccc(S(=O)(=O)N2CCC(Nc3ncnc4ccc(C(c5ccc(Cl)cc5)c5ccc(Cl)cc5)cc34)CC2)s1 [Compound #25, 5-((4-((6-(bis(4-chlorophenyl)methyl)quinazolin-4-yl)amino)piperidin-1-yl)sulfonyl)thiophene-2-carboxylic acid] | 278 | 9
21 | O=C(NCCCOc1ccc(CO)cc1)c1ccc(S(=O)(=O)N2CCC(Nc3ncnc4ccc(C(c5ccc(Cl)cc5)c5ccc(Cl)cc5)cc34)CC2)cc1 [Compound #26, 4-((4-((6-(bis(4-chlorophenyl)methyl)quinazolin-4-yl)amino)piperidin-1-yl)sulfonyl)-N-(3-(4-(hydroxymethyl)phenoxy)propyl)benzamide] | > 10000 | 20
22 | Oc1cccc(CN2CCC(Nc3ncnc4ccc(C(c5ccc(Cl)cc5)c5ccc(Cl)cc5)cc34)CC2)c1 [Compound #28, 3-((4-((6-(bis(4-chlorophenyl)methyl)quinazolin-4-yl)amino)piperidin-1-yl)methyl)phenol] | > 10000 | 69
23 | O=C(NCCCOc1ccc(CCl)cc1)c1ccc(S(=O)(=O)N2CCC(Nc3ncnc4ccc(C(c5ccc(Cl)cc5)c5ccc(Cl)cc5)cc34)CC2)cc1 [Compound #30, 4-((4-((6-(bis(4-chlorophenyl)methyl)quinazolin-4-yl)amino)piperidin-1-yl)sulfonyl)-N-(3-(4-(chloromethyl)phenoxy)propyl)benzamide] | > 10000 | 446
